Read-outs that look alike come from different tables or passages of the source.
Tests used:
arterial thrombosis = assay: Arterial thrombosis induced by electrical stimulation of the left common carotid in rabbits, blood flow rate measured; type: in vivo; details: rabbit; for effect on reduction in carotid blood flow rate: 45 min observation
Procedure: New Zealand male rabbits weighing 2.7 to 3 kg, obtained from the Lago breeding unit (France) were used. They were housed under standard conditions.
The formation of the thrombus was induced by external electrical stimulation of the left common carotid according to the Hladovec I. et al. method (Experimental arterial thrombosis in rats with continuous registration, Throm. Diathes. Haemor. 1971; 26: 407-410). The rabbits were anaesthetized with pentobarbital at the dose of 30 mg/kg iv. A segment of the left carotid artery was exposed and insulated by a piece of insulating film. Electrodes were inserted under the artery. A partial stricture inducing a 20% reduction in flow rate was made in the artery. The latter was then stimulated with the aid of a 2.5 mA current delivered by a constant current stimulator for 3 minutes. The thrombotic occlusion was evaluated by continuous measurement of the flow rate of blood in the carotid by means of an NARCO electromagnetic flow meter. This measurement was made over an observation period of 45 minutes.
For the treatment, solutions of SR 90107/ORG 31540 and of SR 121787A were prepared immediately before use in a saline solution. The solutions of SR 90107/ORG 31540 were injected by the IV route 5 minutes before induction of thrombosis in a volume of 1 ml/kg. SR 121787A was dadministered by the oral route 2 hours earlier.
The results were calculated and expressed as % reduction in blood flow rate at various times relative to time 0. They are grouped together in FIG. 1.

activated factor X (Xa) = assay: Neutralization of activated factor X (Xa) by antithrombin III; type: biochemical
thrombin = thrombin (Homo sapiens, UniProt P00734); assay: Activity on thrombin; type: biochemical
human plasma = assay: Activated partial thromboplastin time (APTT) test on human plasma
platelet aggregation = assay: Platelet aggregation induced by ADP or collagen; type: cell-based
induced thromboses [1] = details: rats; i.v. and s.c. administration; cited from earlier work
induced thromboses [2] = details: rats; i.v. and s.c. administration; cited from earlier work; remark: listed apart in the source
induced thromboses [3] = details: rabbits; i.v. and s.c. administration; cited from earlier work
[4] = rats, cited from earlier work
[5] = Toxicity studies with repeated assays; details: any animal species; repeated assays over 4 weeks with up to 10 mg/kg subcutaneously

Molecule | effect on course of the carotid output (arterial thrombosis; oral dose 10 mg/kg 2 hours before, sole active ingredient) | effect on drop of the carotid output (arterial thrombosis; oral dose 20 mg/kg 2 hours before, sole active ingredient) | effect on reduction in carotid blood flow rate (arterial thrombosis; 300 nmol/kg IV 5 minutes before induction of thrombosis) | effect on reduction in carotid blood flow rate (arterial thrombosis; 600 nmol/kg IV 5 minutes before induction of thrombosis) | catalysis of neutralization of factor Xa by antithrombin III (activated factor X (Xa)) | activity on thrombin (thrombin) | modification of activated partial thromboplastin time (APTT) (human plasma) | potentiation of platelet aggregation induced by ADP (platelet aggregation; ADP) | potentiation of platelet aggregation induced by collagen (platelet aggregation; collagen) | mutagenicity in the AMES test (AMES test) | mutagenicity in the DNA repair test (DNA repair test) | antithrombotic effects (induced thromboses [1]) | antithrombotic effects (induced thromboses [2]) | antithrombotic effects (induced thromboses [3]) | loss of blood ([4]; 21.7 mg/kg (high dose)) | increase of blood loss compared with standard heparin or LMWHs [4] | toxicological effect [5]
CCOC(=O)CCN(c1nc(-c2ccc(/C(N)=N/C(=O)OCC)cc2)cs1)C1CCN(CC(=O)OCC)CC1 [SR 121787A, ethyl N-(1-ethoxycarbonylmethylpiperidin-4-yl)-N-{4-[4-{(N-ethoxycarbonylimino)(amino)methyl}phenyl]thiazol-2-yl}-3-aminopropionate] | did not significantly modify | almost completely inhibited |  |  |  |  |  |  |  |  |  |  |  |  |  |  | 
methyl O-(2-deoxy-2-sulphoamino-6-O-sulfo-α-D-glucopyranosyl)-(1→)-O-(β-D-glucopyranosyluronic acid)-(1→4)-O-(2-deoxy-2-sulphoamino-3,6-di-O-sulpho-α-D-glucopyranosyl-(1→4)-O-(2-O-sulpho-Ε-L-idopyranosyl-uronic acid)-(1→4)-2-deoxy-2-sulphoamino-6-O-sulpho-α-D-glucopyranoside [SR 90107/ORG 31540] |  |  | no influence | reduced it slightly but not significantly | can be catalysed | completely devoid | hardly modifies | does not potentiate | does not potentiate | not mutagenic | not mutagenic | demonstrated | demonstrated | demonstrated | identical to that observed with 200 units anti-Xa/kg of heparin | only slightly increases blood loss | No toxicological effect
